From patent US20130102009A1, “SIRTUIN ACTIVATORS AND ACTIVATION ASSAYS” (priority 2010, published 2013)

Legend:
[1] = target: Ac-Arg-His-Lys-Lys^Ac-AMC; test: ITC binding of STACs to Ac-Arg-His-Lys-Lys^Ac-X, X=AMC; details: 10% DMSO for SRT1720, SRT2183 and 10, no cosolvent for SRT1460
Protocol: (§1) ITC experiments were performed using either a VP-ITC system or iTC200 system (MicroCal) at 26° C. in a buffer composed of 137 mM NaCl, 2.7 mM KCl, 1 mM MgCl2, 2 mM TCEP, 5% (v/v) glycerol and 50 mM HEPES-NaOH, pH 7.3. SIRT1(183-664) was purified and dialyzed against the buffer, centrifuged, and degassed before the experiment. The peptide and compounds were dissolved in the final dialysis buffer and their pH values were adjusted to match that of the protein solution. […] To characterize this interaction using the iTC200 system, 1 mM TAMRA-peptide was injected in 20 aliquots of 2 μL, (except the first injection, which was 0.5 μL) into a 0.202 mL sample cell containing 100 μM STAC. For STACs with poor solubility, the concentrations were adjusted accordingly. […] In all cases, data was corrected for the heat of dilution and fitted using a nonlinear least-squares routine using a single-site binding model with Origin for ITC v7.0383 (Microcal) with the stoichiometry (n), the enthalpy of the reaction (ΔH) and the association constant (Ka) calculated. Table 2 summarizes Kd values for the binding of STACs to […]. Note that except for SRT1460, the solubility of the compounds required that these ITC experiments be done in solutions containing 10% DMSO.

[2] = target: Ac-Arg-His-Lys-Lys^Ac-NH2; test: ITC binding of STACs to Ac-Arg-His-Lys-Lys^Ac-X, X=NH2; details: 10% DMSO for SRT1720, SRT2183 and 10, no cosolvent for SRT1460
Protocol: as §1

[3] = target: Ac-Arg-His-Lys-Lys^Ac-Phe-NH2; test: ITC binding of STACs to Ac-Arg-His-Lys-Lys^Ac-X, X=PheNH2; details: 10% DMSO for SRT1720, SRT2183 and 10, no cosolvent for SRT1460
Protocol: as §1

[4] = target: Ac-Arg-His-Lys-Lys^Ac-Trp-NH2; test: ITC binding of STACs to Ac-Arg-His-Lys-Lys^Ac-X, X=TrpNH2; details: 10% DMSO for SRT1720, SRT2183 and 10, no cosolvent for SRT1460
Protocol: as §1

[5] = target: T1, SIRT1 (Homo sapiens, UniProt Q96EB6); test: Continuous PNC1-GDH-coupled assay of SIRT1-catalyzed deacetylation of Ac-Arg-His-Lys-Lys^Ac-X with STACs; assay type: biochemical; details: [SRT]o = 5 μM, [peptide]o ≦ Km, [NAD+] = 70 μM; for Relative Velocity, X=AMC: Ac-Arg-His-Lys-Lys^Ac-AMC; for Relative Velocity, X=Ala-NH2: Ac-Arg-His-Lys-Lys^Ac-Ala-NH2; for Relative Velocity, X=NH2: Ac-Arg-His-Lys-Lys^Ac-NH2; for Relative Velocity, X=Phe-NH2: Ac-Arg-His-Lys-Lys^Ac-Phe-NH2
T1 sequence (Q96EB6 1-747): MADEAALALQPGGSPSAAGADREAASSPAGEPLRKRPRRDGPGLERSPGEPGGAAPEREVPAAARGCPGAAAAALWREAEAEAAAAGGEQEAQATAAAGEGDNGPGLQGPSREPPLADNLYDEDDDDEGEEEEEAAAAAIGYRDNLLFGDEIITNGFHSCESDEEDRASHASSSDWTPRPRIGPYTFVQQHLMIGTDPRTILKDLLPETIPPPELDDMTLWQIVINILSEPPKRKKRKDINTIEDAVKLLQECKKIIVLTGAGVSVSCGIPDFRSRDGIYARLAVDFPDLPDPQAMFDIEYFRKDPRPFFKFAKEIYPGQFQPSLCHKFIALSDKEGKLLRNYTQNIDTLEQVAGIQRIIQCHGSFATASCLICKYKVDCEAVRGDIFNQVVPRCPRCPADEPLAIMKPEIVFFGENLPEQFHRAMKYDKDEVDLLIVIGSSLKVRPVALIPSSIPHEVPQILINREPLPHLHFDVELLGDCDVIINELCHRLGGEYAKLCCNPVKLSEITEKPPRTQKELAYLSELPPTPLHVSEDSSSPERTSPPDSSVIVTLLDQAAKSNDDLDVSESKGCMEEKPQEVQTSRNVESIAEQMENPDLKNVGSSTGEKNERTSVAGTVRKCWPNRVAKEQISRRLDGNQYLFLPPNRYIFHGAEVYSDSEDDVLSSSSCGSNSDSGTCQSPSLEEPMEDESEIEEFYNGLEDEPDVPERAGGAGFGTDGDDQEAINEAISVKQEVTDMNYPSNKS
Protocol: Bovine glutamate dehydrogenase (GDH), α-ketoglutarate, NADH and NAD^+ were from Sigma Chemical Company. […] The nicotinamidase PNC1 was prepared as described by Denu and colleagues (Smith et al. (2009) Anal Biochem 394, 101-109). To determine the interaction of STACs with SIRT1 two kinetic methods were employed. […] (2007) Nature 450, 712-716). The other, used with peptides of general structure […], used a continuous, enzyme-coupled method reported previously (Smith et al. (2009) Anal Biochem 394, 101-109), in which the SRT1 product nicotinamide is first converted into nicotinic acid and ammonia by the action of PNC1, and the ammonia then used by GDH to convert α-ketoglutarate into glutamate. This reaction occurs with oxidation of NADH to NAD^+ which is accompanied by a change in absorbance at 340 nm (Δε340=-6,200 M^-1 cm^-1). The kinetic experiments used to characterize activators were run on a Perkin Elmer Lambda 25 spectrophotometer equipped with a water-jacketed, eight-cell changer maintained at 25° C. In a typical kinetic experiment, all components of the reaction solution except SIRT1 were added to a 1 mL cuvette and allowed to reach thermal equilibrium. Final concentrations of the coupling system components were: 1 μM PNC1, 0.23 mM NADH, 3.4 mM α-ketoglutarate, and 20 U/mL bovine GDH. This solution also contained peptide substrate, NAD^.0., and activator, at concentrations indicated in the text. The final DMSO concentration was kept constant at 1%, and the buffer used in these experiments was 50 mM HEPES, 150 mM NaCl, pH 7.5. While the system was reaching thermal equilibrium, the absorbance was monitored to provide an accurate estimate of the background rate, which was subtracted from the reaction rate after the addition of SIRT1. Activator titrations were plotted as relative velocity (i.e., the ratio of vx, velocity in the presence of activator X, to vo, velocity in the absence of activator) vs. [X]o, initial concentration of activator, and fit by nonlinear least-squares to the mechanism-independent expression for enzyme activation of […] the maximum relative velocity (i.e., vx/vo at infinite [X]o) and EC50 is the activator concentration at which vx/vo=(RVmax-1)/2. EC50 is a function of the kinetic mechanisms of both catalysis and activation, and the concentrations of substrates.

Structure (SMILES) | Kd [1] [µM] | Kd [2] [µM] | Kd [3] [µM] | Kd [4] [µM] | Kd for binding to Ac-Arg-His-Lys-Lys^Ac-X, X=TrpNH2 [4] | Relative Velocity, X=AMC [5] | Relative Velocity, X=Ala-NH2 [5] | Relative Velocity, X=NH2 [5] | Relative Velocity, X=Phe-NH2 [5] | Relative Velocity, X=Trp-NH2 ([5]; Ac-Arg-His-Lys-Lys^Ac-Trp-NH2)
O=C(Nc1ccccc1-c1cn2c(CN3CCNCC3)csc2n1)c1cnc2ccccc2n1 [SRT1720] | > 500 | > 500 | > 500 | 150 | binds | 1.0 | 0.9 | 1.1 | 0.9 | –
O=C(Nc1ccccc1-c1cn2c(CN3CC[C@@H](O)C3)csc2n1)c1ccc2ccccc2c1 [SRT2183] | > 50 | > 50 | > 50 | > 50 | – | 1.1 | 0.8 | 1.2 | 1.0 | 1.0
